Each block holds one compound with its values, some of them ahead of it.
Key:
[1] = Solution stability (precipitation of benzocaine); type: physicochemical; conditions: liquid embodiment, isopropyl alcohol 70-75% (v)
Excerpt: In a non-limiting exemplary embodiment, the alcohol-based topical anesthesia chemical composition 10 may be stored in a tightly sealed container at 25 C or a temperature range of 20 C to 40 C. Temperatures below 15 C may cause the benzocaine to precipitate.
However, beyond 16% (w/v) of benzocaine, the solution stability becomes an issue due to the precipitation of benzocaine; and menthol can be effectively utilized in the range 1% to 3% (w/v).

skin tissue [2] = assay: Topical anesthesia / analgesia after application to skin; type: in vivo; conditions: 1% (w/v) menthol, preliminary work
Excerpt: The alcohol-based topical anesthesia chemical composition 10 also has a skin analgesic, menthol 1% (w/v).

skin tissue [3] = conditions: topical; cited from earlier work

- benzocaine concentration beyond which solution stability becomes an issue due to precipitation of benzocaine [1]: > 16 % (w/v)
Structure (SMILES): CCOC(=O)c1ccc(N)cc1 [benzocaine]

Structure (SMILES): CC1CCC(C(C)C)C(O)C1 (stereo not drawn) [menthol]
- counterirritant analgesic property (skin tissue [2]): safe yet effective

Structure (SMILES): C[C@]12CCC(=O)C=C1CC[C@@H]1[C@@H]2[C@@H](O)C[C@@]2(C)[C@H]1CC[C@]2(O)C(=O)CO [Hydrocortisone]
- analgesia (alternatives to menthol) (skin tissue [3]): does not provide immediate analgesia
